This note sets out measurements from PubChem BioAssay (NCI).

Some test systems named below: OVCAR-8 ovarian; U251 CNS; NCI/ADR-RES ovarian; KM12 colon; NCI-H23 lung; HT29 colon; SF-539 CNS; UACC-257 melanoma; SF-268 CNS; ACHN renal.
Common to all, as to test: growth of human tumour cells (NCI), 48 h

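Where inhibition never reached the appropriate level, the endpoint shown equals the highest concentration tested. Otherwise, values were interpolated linearly from a five-concentration, 48-hour dose response in 96-well plates. Definition used: TGI = concentration required for complete inhibition of growth.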 Where only a bound is given, the exact number is not on record here.

Turning to `COc1cc2c(cc1OC)C(=O)/C(=C/c1cc(OC)c(OC)c(OC)c1)C2`, the TGI with OVCAR-8 ovarian, in the experiment on U251 CNS, with NCI/ADR-RES ovarian, in the experiment on KM12 colon, in the experiment on NCI-H23 lung and in the experiment with HT29 colon was above 100 µM in each case.
On to `COC(=O)/C=C/C1(O)C=CC(=O)C=C1`, for which the TGI in the experiment with OVCAR-8 ovarian is above 100 µM; with SF-539 CNS it was 4.45 µM; in the experiment on UACC-257 melanoma it was 13.6 µM; in the experiment on SF-268 CNS, 5.84 µM; with ACHN renal, 5.25 µM; with U251 CNS, above 26.5 µM. In addition, the TGI in the experiment with NCI/ADR-RES ovarian was above 68.2 µM; in the experiment on KM12 colon it was 5.61 µM; in the experiment with NCI-H23 lung it was 17.5 µM.
On to `O=C(NCCNCCCNC(=O)c1cc(-c2ccccc2)nc2ccccc12)c1cccc(OCc2ccccc2)c1OCc1ccccc1`, for which the TGI in the experiment on OVCAR-8 ovarian came to 3.15 µM; in the experiment with SF-539 CNS, 3.19 µM; with UACC-257 melanoma, 3.28 µM; in the experiment on ACHN renal it was 3.11 µM; with NCI/ADR-RES ovarian, 3.51 µM; in the experiment on KM12 colon, 3.37 µM. Also, the TGI with NCI-H23 lung was 3.35 µM; in the experiment on HT29 colon, 2.98 µM.
Consider `C1CC[C@H]2SSC3CCCC[C@H]3SSC2C1` (some centres undefined), for which the TGI in the experiment with OVCAR-8 ovarian, in the experiment on SF-539 CNS, in the experiment with UACC-257 melanoma, in the experiment with SF-268 CNS, in the experiment with U251 CNS and with NCI/ADR-RES ovarian was above 100 µM throughout. The TGI with KM12 colon, in the experiment with NCI-H23 lung and with HT29 colon was above 100 µM throughout.
For `C=CCOC(=O)C1=C(CCC[C@@H](C)O[Si](C)(C)C(C)(C)C)N=C(N)N2[C@H](CCO)CC[C@@H]12`, the TGI with UACC-257 melanoma was found to be 38.7 µM; with SF-268 CNS, 31 µM; with ACHN renal it was 40.1 µM; in the experiment with U251 CNS it was 24.7 µM; with NCI/ADR-RES ovarian it was 35 µM; with KM12 colon, 24.1 µM. Besides, the TGI in the experiment on NCI-H23 lung is 32.4 µM.
In the case of `COC(=O)CCC(C)C1CCC2C3C(C[C@H](OC(C)=O)[C@]12C)[C@@]1(C)CCC2(C[C@H]1C[C@H]3OC(C)=O)OOC1(CC[C@]3(C)C4C[C@H](OC(C)=O)[C@]5(C)C(C(C)CCC(=O)OC)CCC5C4[C@H](OC(C)=O)C[C@@H]3C1)OO2` (some centres undefined), the TGI in the experiment on OVCAR-8 ovarian, with UACC-257 melanoma, in the experiment with SF-268 CNS, in the experiment with ACHN renal, in the experiment with U251 CNS and with NCI/ADR-RES ovarian was above 100 µM throughout. Further, the TGI with KM12 colon, with NCI-H23 lung and with HT29 colon was above 100 µM in each case.
Regarding `CC(C)(CCCCC(C)(C)[N+](C)(C)C)[N+](C)(C)C`, the TGI with OVCAR-8 ovarian, in the experiment on SF-539 CNS, in the experiment with UACC-257 melanoma, with SF-268 CNS, in the experiment with U251 CNS and in the experiment on NCI/ADR-RES ovarian was above 100 µM throughout. This molecule also showed a TGI with HT29 colon above 100 µM.
In the case of `O=C(OCc1ccccc1)N(CCCCN(CCCNCc1ccccc1)C(=O)OCc1ccccc1)CCCNCc1ccccc1`, the TGI with OVCAR-8 ovarian came out at 2.79 µM; in the experiment on UACC-257 melanoma it was 1.92 µM; with ACHN renal, 2.93 µM; in the experiment with NCI/ADR-RES ovarian, 3.43 µM; in the experiment with KM12 colon, 1.6 µM; in the experiment on NCI-H23 lung, 3.4 µM. In the experiment with HT29 colon, the TGI was determined as 0.663 µM.
For `C/C(=N\Nc1nc2cccnc2s1)c1ccccn1`, the TGI was 0.0147 µM with OVCAR-8 ovarian; 20.6 µM in the experiment with SF-539 CNS; 1.07 µM in the experiment on ACHN renal; above 100 µM in the experiment on U251 CNS; 0.06 µM in the experiment on NCI/ADR-RES ovarian; above 33.6 µM with KM12 colon. The TGI in the experiment on NCI-H23 lung came to 0.949 µM.
In the case of `Brc1ccc2c(c1)-c1nc3nc4c(cc3cc1CC2)CCc1ccc(Br)cc1-4`, the TGI in the experiment with OVCAR-8 ovarian, with SF-539 CNS, in the experiment on UACC-257 melanoma, in the experiment with SF-268 CNS, in the experiment on ACHN renal and in the experiment on U251 CNS was above 100 µM in each case. Moreover, the TGI in the experiment on NCI/ADR-RES ovarian, with KM12 colon and with NCI-H23 lung was above 100 µM throughout.
As to `Cc1nnc(N)nc1/C=C/c1c(O)ccc2ccccc12`, the TGI with OVCAR-8 ovarian was above 100 µM; with UACC-257 melanoma, above 100 µM; in the experiment on SF-268 CNS, 96.9 µM; in the experiment with ACHN renal, 43.7 µM; in the experiment with U251 CNS it was above 100 µM; with NCI/ADR-RES ovarian, above 100 µM. Also, the TGI with KM12 colon was above 100 µM; in the experiment on NCI-H23 lung, above 100 µM; in the experiment on HT29 colon, 87.7 µM.
As for `CSc1nc2c(ncn2C2OCC(O)C(O)C2O)c(=O)n1C` (centres undefined), the TGI in the experiment on OVCAR-8 ovarian, in the experiment on SF-539 CNS, with UACC-257 melanoma, with SF-268 CNS, in the experiment with U251 CNS and in the experiment with NCI/ADR-RES ovarian was above 100 µM each time. Moreover, the TGI with KM12 colon, with NCI-H23 lung and in the experiment with HT29 colon was above 100 µM throughout.
Turning to `COC(=O)C(C/C=C(\C)c1ccc(Cl)cc1)C(C)=O` (centres undefined), the TGI with OVCAR-8 ovarian was above 100 µM; with SF-539 CNS it was above 100 µM; in the experiment on UACC-257 melanoma it was above 71.3 µM; in the experiment on SF-268 CNS it was above 100 µM; with U251 CNS, above 86.6 µM; with NCI/ADR-RES ovarian, 63.1 µM. Also, the TGI is above 100 µM in the experiment with KM12 colon, above 100 µM in the experiment with NCI-H23 lung and above 77.1 µM with HT29 colon.
As to `O=c1cn[nH]c(=S)n1/N=C/c1c[nH]c2ccccc12`, the TGI in the experiment with OVCAR-8 ovarian is 93.9 µM; in the experiment on SF-539 CNS, above 100 µM; in the experiment with UACC-257 melanoma, above 100 µM; with SF-268 CNS, above 100 µM; with ACHN renal, above 100 µM; with U251 CNS, above 100 µM. Further, the TGI in the experiment on NCI/ADR-RES ovarian, with KM12 colon and in the experiment on HT29 colon was above 100 µM throughout.
In the case of `O=C(O)CC(Sc1ccccc1)c1ccccc1` (centres undefined), the TGI in the experiment with OVCAR-8 ovarian, in the experiment with SF-268 CNS, in the experiment with ACHN renal, in the experiment on U251 CNS, in the experiment on NCI/ADR-RES ovarian and with KM12 colon was above 100 µM each time. Moreover, the TGI with NCI-H23 lung and in the experiment with HT29 colon was above 100 µM each time.
`COc1cc2c(cc1OCCCCOc1cc3c(cc1OC)C(=O)N1CCC[C@H]1C(=O)N3)N=C[C@@H]1CCCN1C2=O`: the TGI in the experiment on OVCAR-8 ovarian came out at 27.8 µM; in the experiment on UACC-257 melanoma, 29.3 µM; in the experiment with SF-268 CNS, 14.8 µM; with ACHN renal it was 27.9 µM; in the experiment on U251 CNS, 14 µM; with NCI/ADR-RES ovarian it was 29 µM. Besides, the TGI was 22.2 µM in the experiment on KM12 colon, 25.4 µM with NCI-H23 lung and 43.2 µM with HT29 colon.
As for `CC(=O)NC(Cc1ccsc1)C(=O)O` (centres undefined), the TGI in the experiment on OVCAR-8 ovarian, with SF-539 CNS, with UACC-257 melanoma, in the experiment with SF-268 CNS, in the experiment with U251 CNS and in the experiment on NCI/ADR-RES ovarian was above 100 µM in each case. The TGI with KM12 colon, in the experiment with NCI-H23 lung and in the experiment on HT29 colon was above 100 µM throughout.
With `Cc1cc(S(=O)(=O)/N=C(/[N-]S(=O)(=O)c2ccc(Cl)cc2)[n+]2ccc(N(C)C)cc2)c(SCC(=O)O)cc1Cl`, the TGI with OVCAR-8 ovarian, in the experiment with SF-539 CNS, in the experiment with UACC-257 melanoma, in the experiment on SF-268 CNS, in the experiment on ACHN renal and in the experiment on U251 CNS was above 100 µM throughout. The TGI in the experiment on KM12 colon, in the experiment on NCI-H23 lung and in the experiment with HT29 colon was above 100 µM in each case.
For `CSc1ncc2c(n1)sc1c(=O)n(-c3ccccc3)cnc12`, the TGI in the experiment with OVCAR-8 ovarian, in the experiment on UACC-257 melanoma, with SF-268 CNS, in the experiment on ACHN renal, in the experiment with U251 CNS and with NCI/ADR-RES ovarian was above 100 µM in each case. Further, the TGI in the experiment with KM12 colon, with NCI-H23 lung and in the experiment on HT29 colon was above 100 µM throughout.
Regarding `O=c1c2cc(Cl)cc(Cl)c2oc2nc3n(c(=O)c12)CCCS3`, the TGI with SF-539 CNS, in the experiment with UACC-257 melanoma, with SF-268 CNS, with ACHN renal, in the experiment with U251 CNS and in the experiment on NCI/ADR-RES ovarian was above 100 µM each time. Besides, the TGI in the experiment on KM12 colon and in the experiment on NCI-H23 lung was above 100 µM throughout.
For `COc1cc(C2C(Cl)C(=O)N2NC(=O)c2ccc(N)cc2)cc(Br)c1O` (centres undefined), the TGI is above 100 µM in the experiment with OVCAR-8 ovarian; 35.2 µM in the experiment with SF-539 CNS; 35.9 µM in the experiment with UACC-257 melanoma; 19.7 µM in the experiment with SF-268 CNS; 45.1 µM in the experiment with ACHN renal; 10.1 µM with U251 CNS. The TGI in the experiment with KM12 colon came to 30.7 µM; with NCI-H23 lung, 35.1 µM; in the experiment on HT29 colon, 41.9 µM.
Consider `Cc1c2ccncc2c(C)c2c1[nH]c1ccc(OCC(F)(F)F)cc12`, for which the TGI stood at 2.59 µM in the experiment with OVCAR-8 ovarian; 3.16 µM with SF-539 CNS; 3.42 µM in the experiment with UACC-257 melanoma; 3.06 µM with SF-268 CNS; 2.88 µM in the experiment with ACHN renal; 2.98 µM in the experiment on U251 CNS. Moreover, the results for the TGI with KM12 colon, in the experiment on NCI-H23 lung and with HT29 colon were 2.79 µM, 3.14 µM and 3.11 µM, respectively.
